From PMC12459020, “Chemical Probes that Target a Dissociative LuxR-Type Quorum Sensing Receptor in Gram-Negative Bacteria” (ACS Chemical Biology, 2025)
pEC50: −log10 of the molar value. Like-named read-outs stand apart in the source and are kept apart here.

Assays:
[1] = test system: P. stewartii ΔesaI (ESN51); assay: Mucoidy (exopolysaccharide) phenotypic assay on CPG agar; type: cell-based, Pantoea stewartii
From the text: In P. stewartii, EsaR regulates the production of the exopolysaccharide stewartan, which clogs the xylem of infected plants and leads to the wilt and lesions characteristic of Stewart’s wilt. EsaR binds directly to the rcsA promoter to repress transcription at low cell density, and when this repression is relieved at high cell density, RcsA contributes to activation of the cps gene cluster, which encodes the stewartan biosynthetic pathway. Exopolysaccharide production can be visualized by the growth of mucoid colonies on casamino acid-peptone-glucose (CPG) agar plates, and this phenotypic assay is commonly used to evaluate EsaR-mediated QS in P. stewartii. , To investigate the ability of the synthetic EsaR agonists uncovered here to regulate a QS-controlled phenotype in P. stewartii, selected compounds were tested for their ability to induce mucoidy in the P. stewartii (ΔesaI) strain, ESN51 (Figure ).
P. stewartii ΔesaI (ESN51) was grown on Casamino Peptone Glucose (CPG) agar (1 g/L casamino acids, 10 g/L peptone, 10 g/L glucose, 17 g/L agar) supplemented with a 1:1000 dilution of compound stocks or DMSO. Plates were incubated at 28 °C for 2 days without shaking before imaging with a smartphone camera (Apple iPhone X). Images are representative of at least two biological replicates.

EsaR [2] = molecular target: T1, EsaR (Pantoea stewartii subsp. stewartii, UniProt P54293); assay: cell-based; settings: for activation at 100 µM / inhibition at 100 µM: 3.5 h; for activation at 100 µM: read-out: EsaR-activated (pesaS) [%] agonism; for inhibition at 100 µM: read-out: EsaR-activated (pesaS) antagonism
T1 construct: expressed in transfected cells; host or cells: E. coli JLD271 (K12 ΔsdiA), arabinose-induced pJN105-esaR
T1 sequence (P54293 whole entry): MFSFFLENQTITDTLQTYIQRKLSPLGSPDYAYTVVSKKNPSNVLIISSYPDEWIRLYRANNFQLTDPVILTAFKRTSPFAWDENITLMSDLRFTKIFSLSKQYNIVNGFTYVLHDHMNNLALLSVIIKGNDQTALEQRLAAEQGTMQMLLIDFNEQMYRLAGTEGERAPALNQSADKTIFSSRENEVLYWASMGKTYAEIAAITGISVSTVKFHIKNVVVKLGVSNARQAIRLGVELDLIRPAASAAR
From the text: (§1) EsaR transcriptional activation and repression were examined using E. coli and P. stewartii reporters (strains and plasmids listed in Table S1; see Methods section for assay details). […] We constructed reporters in E. coli based on previously reported EsaR reporters (Table S1). Each strain contained an EsaR expression plasmid (pJN105-esaR) and a reporter plasmid with either an EsaR-activated promoter (pesaS) or an EsaR-repressed promoter (pesaR) upstream of luxABCDE or GFP.
(§2) Gibson assembly was used to create all constructs. Plasmid pJN105-esaR was created by amplifying esaR from pAC-esaR and inserting it into pJN105. pesaSlux was created by inserting pesaS, amplified from pPesaR-AC:gfp, into the pCS-pesaRlux backbone. The pesaR promoter was amplified from pCS-pesaRlux and inserted into the pPesaR-AC:gfp backbone to create pesaR:GFP. P. stewartii reporter strains were created by transforming pesaR:GFP or pPesaR-AC:gfp into ESN51 by conjugation using E. coli S17 λpir as the donor strain. See SI for details of E. coli ExpR2 reporter construction.
(§3) Overnight cultures were diluted 1:10 in LB medium with appropriate antibiotics and grown at 37 °C (200 rpm) to an OD600 of 0.22–0.27 before induction with 4 mg mL^–1 arabinose. OD600 was measured by placing 200 μL of culture into a 96-well plate and reading optical density using the BioTek Synergy 2 plate reader. Assays were performed in technical triplicate in clear-bottom, white and clear-bottom, black 96-well microtiter plates (Corning Costar 3903 and 3904) for luminescence and fluorescence reporters, respectively. Compounds were dissolved in DMSO, and 2 μL of this stock, or DMSO as a negative control, was added to each well prior to adding 198 μL of induced culture. Plates were incubated at 37 °C (200 rpm) for 3.5 h. Each well was mixed by pipetting before reading OD600 and either luminescence or fluorescence. Single-point screens were performed with one or two biological replicates, and all dose–response curves were performed in biological triplicate. EC50 values were calculated based on a nonlinear regression of log(concentration) vs response (three parameters) using GraphPad Prism 9 software.

EsaR [3] = molecular target: T1, EsaR; assay: cell-based; settings: for activation at 100 µM / inhibition at 100 µM: 3.5 h; for activation at 100 µM: read-out: EsaR-repressed (pesaR) [%] agonism; for inhibition at 100 µM: read-out: EsaR-repressed (pesaR) antagonism
From the text: as §1, §2, §3

ExpR2 = settings: cited from earlier work; for ExpR2 antagonism (percent inhibition): 5 µM compound against 5 µM OHHL, negative values indicate potential activators, ref 6 (SI; Palmer et al., 2011); for ExpR2 [%] (agonism, percent activation): compounds at 200 μM, cellulase activity in P. versatile AC5099, ref Palmer et al., 2011 (main ref 44, SI ref 6)
LuxR = settings: cited from earlier work; for LuxR antagonism: 5 µM compound against 5 µM OHHL, negative values indicate potential activators, ref 6 (SI; Palmer et al., 2011); for LuxR [%] (agonism, activation): compounds at 200 μM, luminescence in V. fischeri ES114 (ΔluxI), ref Palmer et al., 2011 (main ref 44, SI ref 6)
ExpR1 = settings: cited from earlier work; for ExpR1 antagonism: 5 µM compound against 5 µM OHHL, negative values indicate potential activators, ref 6 (SI; Palmer et al., 2011); for ExpR1 [%] (agonism, activation): compounds at 200 μM, cellulase activity in P. versatile AC5117, ref Palmer et al., 2011 (main ref 44, SI ref 6)
[4] = concentration not given, CPG agar, ESN51
[5] = 10 μM in CPG agar, ESN51, 2 days at 28 °C
[6] = 100 μM in CPG agar, ESN51, 2 days at 28 °C

## CCCCCCS(=O)(=O)N[C@H]1CCOC1=O [A11]
[1]; [4]
  induction of mucoidy: did not induce mucoidy

## O=C1OCC[C@@H]1NS(=O)(=O)c1cccc(Cl)c1 [GAF 28]
EsaR [2]
  pEC50: 5.66
[1]; [5]
  induction of mucoidy: induced mucoidy
EsaR [3]
  pEC50: 5.66

## O=C1OCC[C@H]1NS(=O)(=O)c1ccc(Cl)c(Cl)c1 [GAF 55]
EsaR [2]; 100 μM, E. coli EsaR reporter
  EsaR agonism at 100 μM (bound stated in text): less than 50%
[1]; [4]
  induction of mucoidy: did not induce mucoidy

## O=C1OCC[C@@H]1NS(=O)(=O)c1ccccc1 [GAF 57]
[1]; [5]
  induction of mucoidy: not at 10 μM
[1]; [6]
  induction of mucoidy: induced mucoidy

## CCCCCC(O)CC(=O)N[C@H]1CCOC1=O (some centres unmarked) [H2]
EsaR [2]; E. coli EsaR reporter EC50 values
  fold less potent than OOHL in EsaR: ~20 fold
[1]; [5]
  induction of mucoidy: not at 10 μM
[1]; [6]
  induction of mucoidy: induced mucoidy

## CCCCCCCCCCCC(=O)CC(=O)N[C@H]1CCOC1=O [OtDHL, reference compound]
EsaR [2]
  activation at 100 µM: 16%
  inhibition at 100 µM: -41%
ExpR2
  ExpR2 antagonism (percent inhibition): 7%
  ExpR2 [%] (agonism, percent activation): 9%
LuxR
  LuxR antagonism: 5%
  LuxR [%] (agonism, activation): 4%
ExpR1
  ExpR1 antagonism: 4%
  ExpR1 [%] (agonism, activation): 1%
EsaR [3]
  activation at 100 µM: 13%
  inhibition at 100 µM: -53%

## CCCCCCCCCCCC(=O)N[C@H]1CCOC1=O [dDHL, reference compound]
EsaR [2]
  activation at 100 µM: 45%
  inhibition at 100 µM: -63%
ExpR2
  ExpR2 antagonism (percent inhibition): 62%
  ExpR2 [%] (agonism, percent activation): 31%
LuxR
  LuxR antagonism: 73%
  LuxR [%] (agonism, activation): 1%
ExpR1
  ExpR1 antagonism: 77%
  ExpR1 [%] (agonism, activation): 0%
EsaR [3]
  activation at 100 µM: 35%
  inhibition at 100 µM: -27%

## CCCCCCCCCCCCCCCC(=O)N[C@H]1CCOC1=O [hDHL, reference compound]
EsaR [2]
  activation at 100 µM: 25%
  inhibition at 100 µM: -11%
ExpR2
  ExpR2 antagonism (percent inhibition): 7%
  ExpR2 [%] (agonism, percent activation): 11%
LuxR
  LuxR antagonism: 27%
  LuxR [%] (agonism, activation): 2%
ExpR1
  ExpR1 antagonism: 4%
  ExpR1 [%] (agonism, activation): 0%
EsaR [3]
  activation at 100 µM: 22%
  inhibition at 100 µM: -71%
